Data as given in US20070134349A1, “Methods of treating hematological malignancies” (DUKE UNIVERSITY, priority 2005, published 2007).
Like-named read-outs stand apart in the source and are kept apart here.

How the values were obtained:
[1] = industrial solvent of which MAA is a metabolite; cited from earlier work
NB4 cells [2] = test: Differentiation markers CD11c/CD11b by flow cytometry in NB4 cells; type: cell-based
Method: (§1) NB4 cells were provided by Dr. Ronald Evans (Salk Institute, La Jolla, Calif.). NB4-R4 cells were provided by Dr. Wilson Miller (McGill University, Montreal, Canada). HL-60, U-937, and Kasumi-1 cells were obtained from the American Type Culture Collection (Rockville, Md.). NB4 and NB4-R4 cells were grown in RPMI medium 1640 containing 10% fetal bovine serum. U-937 cells were grown in RPMI medium 1640 containing 10 mM HEPES, 1 mM sodium pyruvate, 4.5 g/L glucose, and 10% fetal bovine serum. HL-60 cells were grown in Iscove's Modified Dulbecco's medium containing 20% fetal bovine serum. Kasumi-1 cells were grown in RPMI medium 1640 containing 10 mM HEPES, 1 mM sodium pyruvate, 4.5 g/L glucose, and 20% fetal bovine serum.
(§2) To determine the percentage of cells that express differentiation markers, cells were washed once and resuspended in RPMI medium 1640 containing 3% fetal bovine serum. Phycoerythrin (PE)-conjugated CD11b, 5 Allophycocyanin (APC)-CD11c or control antibodies (BD Pharmingen, San Diego, Calif.) were added into cell suspension. After 30 minutes of incubation in the dark at 4° C., the cells were washed twice and resuspended in RPMI medium 1640 containing 7-amino actinomycin D (AAD) (for dead cell exclusion) and analyzed by FACScan (Becton Dickinson).

NB4 cells [3] = test: Apoptosis by Annexin V binding (flow cytometry) in NB4 cells; type: cell-based; details: MAA 5 mM alone, NB4 cells, 3 days
Method: as §1
(§3) To determine the percentage of cells that undergo apoptosis, after incubation with APC-CD11c antibody in the dark at 4° C., cells were washed twice with PBS and incubated at room temperature for 15 min with PE-conjugated Annexin-V (BD Pharmingen) and 7-AAD in binding buffer (10 mM HEPES, pH 7.4, 140 mM NaCI, 2.5 mM CaCl2) and analyzed by FACScan for CD11c expression and Annexin V binding. Apoptotic cells are those that stained positive for Annexin V and negative for 7-AAD.

RARE-TK-Luc reporter = RARE-TK-Luc reporter transient transfection in NB4 cells; type: cell-based; details: MAA 5 mM, 19 h
Method: Electroporation was performed using a Gene Pulser (BioRad, Hercules, Calif.) apparatus at 300 V and 960 μF capacity. […] Cells were harvested 19 h after transfection/treatment for luciferase and β-galactosidase activities.

PML-RARα = target: T1, PML-RARα (Homo sapiens, UniProt P10276+P29590); test: Western blot of PML-RARα and RARα in NB4 cells; type: cell-based; details: 3 days
T1 construct: PML portion (fusion partner, UniProt P29590); endogenous in cells; host or cells: NB4 cells
T1 sequence (P29590+P10276 with tags, fused parts or gaps): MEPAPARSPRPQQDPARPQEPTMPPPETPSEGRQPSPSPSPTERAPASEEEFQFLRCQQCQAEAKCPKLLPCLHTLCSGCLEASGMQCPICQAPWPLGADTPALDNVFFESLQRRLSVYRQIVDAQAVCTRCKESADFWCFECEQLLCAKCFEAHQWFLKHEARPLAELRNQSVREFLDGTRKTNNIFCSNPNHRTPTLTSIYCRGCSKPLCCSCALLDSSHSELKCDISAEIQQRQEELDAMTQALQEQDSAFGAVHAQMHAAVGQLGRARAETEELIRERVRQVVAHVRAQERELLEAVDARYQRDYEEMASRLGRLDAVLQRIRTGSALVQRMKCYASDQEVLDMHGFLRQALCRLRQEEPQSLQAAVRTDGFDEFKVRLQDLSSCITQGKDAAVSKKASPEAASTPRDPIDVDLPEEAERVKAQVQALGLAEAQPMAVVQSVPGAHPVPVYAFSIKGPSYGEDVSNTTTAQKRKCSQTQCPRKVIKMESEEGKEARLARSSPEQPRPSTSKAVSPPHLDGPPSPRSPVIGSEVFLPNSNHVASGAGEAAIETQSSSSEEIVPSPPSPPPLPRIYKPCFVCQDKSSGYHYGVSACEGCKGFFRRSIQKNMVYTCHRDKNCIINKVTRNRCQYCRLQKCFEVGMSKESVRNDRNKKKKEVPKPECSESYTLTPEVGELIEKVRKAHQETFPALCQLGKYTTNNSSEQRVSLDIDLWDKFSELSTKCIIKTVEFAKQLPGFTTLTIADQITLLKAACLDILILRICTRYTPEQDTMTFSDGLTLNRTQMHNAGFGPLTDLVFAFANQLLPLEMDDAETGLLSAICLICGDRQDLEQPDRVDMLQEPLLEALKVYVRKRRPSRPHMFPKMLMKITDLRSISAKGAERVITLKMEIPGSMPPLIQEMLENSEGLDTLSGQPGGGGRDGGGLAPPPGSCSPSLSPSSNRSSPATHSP
Method: (§4) Whole-cell lysates were prepared by washing the cells with PBS and resuspending them in 1 ml of lysis buffer (1× phosphate-buffered saline, 1 mM EDTA, 1.5 mg/ml of iodoacetamide, 100 μM sodium orthovanadate, 0.5% Triton X-100, 20 mM β-glycerolphosphate, 0.2 mM phenylmethylsulfonyl fluoride, and 1× complete protease inhibitor cocktail). After clarification by a 15-min centrifugation in a microcentrifuge at 4° C., the resulting supernatant was collected. 20-50 μg of protein extracts were separated on a 10% SDS-polyacrylamide gel and transferred to a nitrocellulose membrane. The membrane was blocked with 5% nonfat milk followed by incubation with antibodies. The immunocomplex was visualized by chemiluminescence.

C/EBPβ = test: Western blot of phospho-C/EBPβ (Thr-235) and C/EBPβ in NB4 cells; type: cell-based
Method: as §4

ERK1/2 [4] = test: Western blot of phospho-ERK1/2 in NB4 cells; type: cell-based; details: 24 h
Method: as §4

histones H3 and H4 = test: Western blot of acetylated histones H3 and H4 in NB4 cells; type: cell-based
Method: as §4

H3 [5] = test: Western blot of phospho-H3 (Ser-10) in NB4 cells; type: cell-based; details: NB4 cells, 24 h
Method: as §4

U-937 cells [6] = test: CD11c expression by flow cytometry in U-937 cells; type: cell-based; details: lower concentrations, 3 days
Method: as §1, §2

U-937 cells [7] = test: Annexin V binding in U-937 cells; type: cell-based; details: higher concentrations, 3 days
Method: as §1, §3

ERK1/2 [8] = test: Western blot of phospho-ERK1/2 in U-937 cells; type: cell-based; details: higher concentrations, 18 h, total ERK1/2 unaffected
Method: as §4

H3 [9] = test: Western blot of acetyl-H3 and phospho-H3 in U-937 cells; type: cell-based; details: higher concentrations, 18 h
Method: as §4

HL-60 cells = test: CD11c expression by flow cytometry in HL-60 cells; type: cell-based; details: 48 h
Method: as §1, §2

Kasumi-1 cells = test: CD11c expression by flow cytometry in Kasumi-1 cells; type: cell-based; details: 3 days
Method: as §1, §2

[10] = in human; cited from earlier work
[11] = in non-human primates; cited from earlier work
[12] = in rats; cited from earlier work
[13] = cited from earlier work
[14] = cited from earlier work; remark: listed apart in the source

Compound: COCCO [ethylene glycol monomethyl ether]
- developmental toxicity [1]: developmental toxicant

Compound: COCC(=O)O [MAA, methoxyacetic acid]
- percentage of cells expressing CD11c induced by ATO (NB4 cells [2]; MAA 1 mM added to ATO 0.1 to 1 μM, NB4 cells, 3 days): significantly increases
- percentage of cells expressing CD11b (NB4 cells [2]; MAA 1 mM alone, NB4 cells, 24 h, from 26%): 51%
- expression of CD11c and CD11b (NB4 cells [2]; MAA 5 mM alone, NB4 cells, 3 days): can induce expression
- NB4 cell differentiation (CD11c) (NB4 cells [2]; MAA 5 mM, 21 h): can induce NB4 cell differentiation
- percentage of cells expressing CD11c (NB4 cells [2]; NB4 cells, 24 h, from 32%): 41%
- percentage of NB4 cells expressing the myeloid differentiation markers CD11c and CD11b (NB4 cells [2]; NB4 cells, 3 days): comparable to ATRA
- NB4 differentiation (NB4 cells [2]; NB4 cells, FIG. 10): potent inducers
- apoptosis (Annexin V) (NB4 cells [3]): does not induce significant amount of apoptosis
- transcription of RARE-containing reporter gene (RARE-TK-Luc) (RARE-TK-Luc reporter): does not activate
- degradation of RARα and accumulation of ΔPML-RARα (PML-RARα): not observed
- expression level of PML-RARα fusion protein (PML-RARα): no effect
- level of phosphorylated C/EBPβ at Thr-235 (C/EBPβ; 17 h): dose-dependent increase
- phosphorylation of C/EBPβ at Thr-235 (C/EBPβ; lower concentrations, 24 h): maximal phosphorylation
- levels of phosphorylated ERK (ERK1/2 [4]; higher concentrations (no differentiating effects), total ERK not decreased): dramatically decreased
- constitutive levels of phosphorylated ERK (ERK1/2 [4]; lower concentrations): did not change
- HDACI potency relative to BA (histones H3 and H4; as shown in the applicant's study (histone acetylation)): less potent HDACI than BA
- H3 or H4 acetylation (histones H3 and H4; concentrations optimal for differentiation, NB4 cells, 24 h): no significant increase
- H3 and H4 acetylation (histones H3 and H4; concentrations required for apoptosis, NB4 cells, 24 h): robust acetylation
- H3 phosphorylation (Ser-10) (H3 [5]; higher concentrations): dramatically increased
- H3 phosphorylation (Ser-10) (H3 [5]; lower concentrations): without effect
- expression of the differentiation marker CD11c (U-937 cells [6]): increasing expression
- apoptosis (Annexin V) (U-937 cells [7]): inducing apoptosis
- activity of ERK1/2 (phospho-ERK1/2) (ERK1/2 [8]): downregulate
- H3 acetylation and phosphorylation (H3 [9]): increase
- differentiation as evidenced by expression of CD11c (HL-60 cells): induce differentiation
- percentage of cells expressing CD11c (Kasumi-1 cells): increased
- elimination half-life [10]: 77.1 h
- elimination half-life [11]: 20 h
- elimination half-life [12]: 13 to 18 h
- half-life in vivo ([13]; Shih et al 2001): long

Compound: CC(/C=C/C(=O)NO)=C\[C@@H](C)C(=O)c1ccc(N(C)C)cc1 [TSA, trichostatin A]
- metabolism ([13]; in vivo): rapidly metabolized
- activity in vivo (anti-tumor) [14]: does not exhibit significant activity
